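1) Cells in 96-well plates. 2) Compound, 48 h, 5 concentrations. 3) Linear interpolation between surrounding doses. 4) Unreached endpoint = highest concentration. At the GI50, growth is halved. The concentration for full growth arrest is given as TGI.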
Assays:
Assay in all cases: growth of human tumour cells (NCI), 48 h
HS 578T breast = system: HS 578T breast
UACC-257 melanoma = system: UACC-257 melanoma
DU-145 prostate = system: DU-145 prostate
M14 melanoma = system: M14 melanoma
EKVX NSCLC = system: EKVX NSCLC
U251 CNS = system: U251 CNS
CCRF-CEM leukemia = system: CCRF-CEM leukemia
OVCAR-8 ovarian = system: OVCAR-8 ovarian
HT29 colon = system: HT29 colon
T-47D breast = system: T-47D breast

Structure (SMILES) | GI50 (HS 578T breast) [nM] | TGI (HS 578T breast) [µM] | GI50 (UACC-257 melanoma) [µM] | TGI (UACC-257 melanoma) [µM] | GI50 (DU-145 prostate) [µM] | TGI (DU-145 prostate) [µM] | GI50 (M14 melanoma) [µM] | TGI (M14 melanoma) [µM] | GI50 (EKVX NSCLC) [µM] | TGI (EKVX NSCLC) [µM] | GI50 (U251 CNS) [µM] | TGI (U251 CNS) [µM] | GI50 (CCRF-CEM leukemia) [µM] | TGI (CCRF-CEM leukemia) [µM] | GI50 (OVCAR-8 ovarian) [µM] | TGI (OVCAR-8 ovarian) [µM] | GI50 (HT29 colon) [nM] | TGI (HT29 colon) [µM] | GI50 (T-47D breast) [nM] | TGI (T-47D breast) [µM]
CCSc1nnc(-c2ccc3ccccc3c2O)n1-c1ccccc1 | > 100000 | > 100 | > 100 | > 100 | > 100 | > 100 | – | – | – | – | – | – | – | – | – | – | – | – | – | –
N#Cc1cc2c(=S)[nH]c(=S)[nH]c2nc1SCc1ccccc1 | 39600 | > 100 | 47.4 | > 100 | 82.9 | > 100 | 58.2 | > 100 | 63.3 | > 100 | 29.5 | > 100 | 33.1 | > 100 | 58.1 | > 100 | – | – | – | –
CC1=CC[C@@H]2C(=O)C=CC=C[C@H]12.[C-]#[O+].[C-]#[O+].[C-]#[O+].[Fe] | – | – | > 100 | > 100 | – | – | > 100 | > 100 | – | – | > 100 | > 100 | > 100 | > 100 | > 100 | > 100 | > 100000 | > 100 | – | –
CCSc1nc(N)c(C#N)c(-c2ccc(OC)c(OC)c2)c1C#N | 13100 | 43.7 | 9.13 | > 50 | 30.7 | > 50 | 18.7 | 45.7 | 32.2 | > 50 | 17.6 | > 50 | – | – | 15.5 | 45.1 | – | – | > 50000 | > 50
O=C1Nc2cc(-c3ccc(O)cc3)ccc2/C1=C/c1ccc[nH]1 | – | – | 0.743 | > 100 | 0.815 | > 36.4 | 0.0974 | > 100 | – | – | 0.526 | > 100 | 0.154 | > 100 | 0.524 | > 100 | 979 | > 33.8 | 59.1 | –
CC1=C(C(=O)NCc2ccccc2)C(c2ccc(N(C)C)cc2)C(C(=O)NCc2ccccc2)=C(C)N1 | – | – | – | > 100 | – | – | – | > 100 | – | > 100 | – | > 100 | – | > 100 | – | > 100 | – | > 100 | – | –
CCCCCCCCCCCc1cc(=O)c2c(O)cccc2o1 | – | – | – | > 100 | – | – | – | > 100 | – | > 100 | – | > 100 | – | 83.7 | – | > 100 | – | > 100 | – | –
COc1ccc(C2C(C(=O)O)=C(CO)Oc3cc4c(cc32)OCO4)c(OC)c1 (centres undefined) | – | – | – | > 100 | – | – | – | > 100 | – | > 100 | – | > 100 | – | > 100 | – | > 100 | – | > 100 | – | –
N#CC1=C(N)Oc2c(ccc3cccnc23)C1c1ccccc1 (centres undefined) | 1730 | > 100 | – | > 79.4 | – | – | – | > 41.5 | – | > 100 | – | 36.2 | – | 13.4 | – | > 100 | – | – | 1450 | 65.6
O=c1c2cc(Br)ccc2n(C2OC(CO)C(O)C(O)C2O)c(=S)n1-c1ccccc1 (centres undefined) | – | – | – | > 100 | – | – | – | – | – | > 100 | – | > 100 | – | – | – | > 100 | – | > 100 | – | –
[N-]=[N+]=Nc1nnc(CCCCc2nnc(N=[N+]=[N-])o2)o1 | – | – | – | > 100 | – | – | – | > 100 | – | > 100 | – | > 100 | – | > 100 | – | > 100 | – | > 100 | – | –
C=CC(=O)OCCCS(=O)(=O)[O-].C=CC(=O)OCCCS(=O)(=O)[O-].NC1CCCCC1N.[Pt+4] | – | – | > 25 | > 25 | – | – | > 25 | > 25 | > 25 | > 25 | > 25 | > 25 | > 25 | > 25 | > 25 | > 25 | > 25000 | > 25 | – | –
C=CCC(O)c1cc(OC)ccc1OC (centres undefined) | – | – | – | > 100 | – | – | – | > 100 | – | > 100 | – | > 100 | – | > 100 | – | > 100 | – | > 100 | – | –
O=C(Oc1c(Cl)c(Cl)c(Cl)c(Cl)c1Cl)C1CCCN1C(=O)OCc1ccccc1 (centres undefined) | 2920 | 10.4 | 4.29 | 17.7 | 4.49 | 20 | 4 | 16.4 | – | – | 3.34 | 12.6 | 3.01 | 14.3 | 3.43 | 15.9 | 3710 | 12 | 2790 | 11.3
O=C(/C=C/c1ccco1)N1CCN(Cc2ccccc2)CC1 | – | – | – | > 100 | – | – | – | > 100 | – | > 100 | – | > 100 | – | > 100 | – | > 100 | – | > 100 | – | –
Nc1ncc(-c2ccc3ncnc(N4CCc5cc(F)c(Cl)cc54)c3c2)cc1C(F)(F)F | 298 | 2.54 | 2.08 | > 100 | 1.8 | > 100 | 2.74 | > 100 | – | – | 3.5 | > 100 | 2.68 | > 100 | 2.34 | > 100 | 1970 | > 100 | 1070 | > 100
COc1ccc(/C=C\c2cc(OC)c(OC)c(OC)c2)cc1N/C=C\C(=O)c1c[nH]c2ccccc12 | < 10 | > 100 | > 100 | > 100 | < 0.01 | 0.0142 | < 0.01 | 47.8 | – | – | < 0.01 | 47.8 | < 0.01 | > 100 | < 0.01 | > 100 | < 10 | > 100 | – | –
COc1cc2ccnc(-c3n[nH]c4cc(OC)c(OC)cc34)c2cc1OC | – | – | – | > 100 | – | – | – | > 100 | – | > 100 | – | > 100 | – | > 100 | – | > 100 | – | > 100 | – | –
CC(=O)Nc1ccc(S(=O)(=O)N/N=C(\C)CN2C(=O)c3ccccc3C2=O)cc1 | – | – | – | > 100 | – | – | – | > 100 | – | > 100 | – | > 100 | – | > 100 | – | > 100 | – | > 100 | – | –
CC(C(=O)c1ccc(O)cc1)C1(O)C(=O)Nc2c(Cl)cc(Cl)cc21 (centres undefined) | – | – | – | 33.3 | – | – | – | > 61.2 | – | > 100 | – | > 100 | – | 74.7 | – | > 100 | – | > 100 | – | –
